Data from ChEMBL document CHEMBL4396913, “Synthesis and biological evaluation of hybrid quinolone-based quaternary ammonium antibacterial agents” (Eur J Med Chem, 2019).
≈ marks a conversion by molar mass, not a printed value.

Experiments:
[1] = Lipophilicity, log k of the compound at 100 ug/ml by micellar electrokinetic chromatography; format: physicochemical
Staphylococcus aureus [2] = assay: Antibacterial activity against Staphylococcus aureus ATCC 6538 cultured in MH medium assessed as reduction in bacterial growth incubated for 48 hrs by microbroth dilution method; format: functional; settings: ATCC 6538, 48 h
Staphylococcus aureus [3] = assay: Bactericidal activity against Staphylococcus aureus ATCC 6538 cultured in MH medium assessed as reduction in bacterial survival incubated for 48 hrs by microbroth dilution method; format: functional; settings: ATCC 6538, 48 h
Staphylococcus aureus [4] = assay: Antibacterial activity against methicillin resistant Staphylococcus aureus N315 cultured in MH medium assessed as reduction in bacterial growth incubated for 48 hrs by microbroth dilution method; format: functional; settings: N315, 48 h
Staphylococcus aureus [5] = assay: Bactericidal activity against methicillin resistant Staphylococcus aureus N315 cultured in MH medium assessed as reduction in bacterial survival incubated for 48 hrs by microbroth dilution method; format: functional; settings: N315, 48 h
[6] = tested on: Staphylococcus epidermidis; assay: Antibacterial activity against Staphylococcus epidermidis ATCC 14990 cultured in MH medium assessed as reduction in bacterial growth incubated for 48 hrs by microbroth dilution method; format: functional; settings: ATCC 14990, 48 h
[7] = tested on: Staphylococcus epidermidis; assay: Bactericidal activity against Staphylococcus epidermidis ATCC 14990 cultured in MH medium assessed as reduction in bacterial survival incubated for 48 hrs by microbroth dilution method; format: functional; settings: ATCC 14990, 48 h
Enterococcus hirae [8] = assay: Antibacterial activity against Enterococcus hirae ATCC 1052 cultured in BHI medium assessed as reduction in bacterial growth incubated for 48 hrs by microbroth dilution method; format: functional; settings: ATCC 1052, 48 h
Bacillus spizizenii [9] = assay: Antibacterial activity against Bacillus subtilis ATCC 6633 cultured in MH medium assessed as reduction in bacterial growth incubated for 48 hrs by microbroth dilution method; format: functional; settings: ATCC 6633, 48 h
Bacillus spizizenii [10] = assay: Bactericidal activity against Bacillus subtilis ATCC 6633 cultured in MH medium assessed as reduction in bacterial survival incubated for 48 hrs by microbroth dilution method; format: functional; settings: ATCC 6633, 48 h
Escherichia coli [11] = assay: Antibacterial activity against Escherichia coli ATCC 8739 cultured in MH medium assessed as reduction in bacterial growth incubated for 48 hrs by microbroth dilution method; format: functional; settings: ATCC 8739, 48 h
Escherichia coli [12] = assay: Bactericidal activity against Escherichia coli ATCC 8739 cultured in MH medium assessed as reduction in bacterial survival incubated for 48 hrs by microbroth dilution method; format: functional; settings: ATCC 8739, 48 h
Pseudomonas aeruginosa [13] = assay: Antibacterial activity against Pseudomonas aeruginosa ATCC 9027 cultured in MH medium assessed as reduction in bacterial growth incubated for 48 hrs by microbroth dilution method; format: functional; settings: ATCC 9027, 48 h
Pseudomonas aeruginosa [14] = assay: Bactericidal activity against Pseudomonas aeruginosa ATCC 9027 cultured in MH medium assessed as reduction in bacterial survival incubated for 48 hrs by microbroth dilution method; format: functional; settings: ATCC 9027, 48 h
Proteus vulgaris [15] = assay: Antibacterial activity against Proteus vulgaris NCTC 4635 cultured in MH medium assessed as reduction in bacterial growth incubated for 48 hrs by microbroth dilution method; format: functional; settings: NCTC 4635, 48 h
Proteus vulgaris [16] = assay: Bactericidal activity against Proteus vulgaris NCTC 4635 cultured in MH medium assessed as reduction in bacterial survival incubated for 48 hrs by microbroth dilution method; format: functional; settings: NCTC 4635, 48 h
Staphylococcus aureus [17] = assay: Antibacterial activity against methicillin resistant Staphylococcus aureus 6347 cultured in MH medium assessed as reduction in bacterial growth incubated for 48 hrs by microbroth dilution method; format: functional; settings: Staphylococcus aureus, 6347, 48 h
Staphylococcus aureus [18] = assay: Bactericidal activity against methicillin resistant Staphylococcus aureus 6347 cultured in MH medium assessed as reduction in bacterial survival incubated for 48 hrs by microbroth dilution method; format: functional; settings: Staphylococcus aureus, 6347, 48 h
[19] = tested on: Staphylococcus epidermidis; assay: Antibacterial activity against methicillin resistant Staphylococcus epidermidis ATCC 13199 cultured in MH medium assessed as reduction in bacterial growth incubated for 48 hrs by microbroth dilution method; format: functional; settings: ATCC 13199, 48 h
[20] = tested on: Staphylococcus epidermidis; assay: Bactericidal activity against methicillin resistant Staphylococcus epidermidis ATCC 13199 cultured in MH medium assessed as reduction in bacterial survival incubated for 48 hrs by microbroth dilution method; format: functional; settings: ATCC 13199, 48 h
Streptococcus pneumoniae [21] = assay: Antibacterial activity against Streptococcus pneumoniae cultured in MH medium assessed as reduction in bacterial growth incubated for 48 hrs by microbroth dilution method; format: functional
Serratia marcescens [22] = assay: Antibacterial activity against Serratia marcescens ATCC 12795 cultured in MH medium assessed as reduction in bacterial growth incubated for 48 hrs by microbroth dilution method; format: functional; settings: ATCC 12795, 48 h
Serratia marcescens [23] = assay: Bactericidal activity against Serratia marcescens ATCC 12795 cultured in MH medium assessed as reduction in bacterial survival incubated for 48 hrs by microbroth dilution method; format: functional; settings: ATCC 12795, 48 h
HEK293 [24] = assay: Cytotoxicity against human HEK293 cells assessed as cell viability upto 20 uM incubated for 72 hrs by MTT assay; format: cell-based; settings: hek293, 72 h
HEK293 [25] = assay: Cytotoxicity against human HEK293 cells assessed as changes in cell morphology upto 20 uM incubated for 72 hrs by MTT assay; format: cell-based; settings: hek293, 72 h
Enterococcus hirae [26] = assay: Bactericidal activity against Enterococcus hirae ATCC 1052 cultured in BHI medium assessed as reduction in bacterial survival incubated for 48 hrs by microbroth dilution method; format: functional; settings: ATCC 1052, 48 h
Streptococcus pneumoniae [27] = assay: Bactericidal activity against Streptococcus pneumoniae cultured in MH medium assessed as reduction in bacterial survival incubated for 48 hrs by microbroth dilution method; format: functional

Row | SMILES | log K [1] | MIC (Staphylococcus aureus [2]) [µg/mL] | MBC (Staphylococcus aureus [3]) [µg/mL] | MIC (Staphylococcus aureus [4]) [µg/mL] | MBC (Staphylococcus aureus [5]) [µg/mL] | MIC [6] [µg/mL] | MBC [7] [µg/mL] | MIC (Enterococcus hirae [8]) [µg/mL] | MIC (Bacillus spizizenii [9]) [µg/mL] | MBC (Bacillus spizizenii [10]) [µg/mL] | MIC (Escherichia coli [11]) [µg/mL] | MBC (Escherichia coli [12]) [µg/mL] | MIC (Pseudomonas aeruginosa [13]) [µg/mL] | MBC (Pseudomonas aeruginosa [14]) [µg/mL] | MIC (Proteus vulgaris [15]) [µg/mL] | MBC (Proteus vulgaris [16]) [µg/mL] | MIC (Staphylococcus aureus [17]) [µg/mL] | MIC [19] [µg/mL] | MIC (Streptococcus pneumoniae [21]) [µg/mL] | MIC (Serratia marcescens [22]) [µg/mL] | further results
1 | CCn1cc(C(=O)O)c(=O)c2cc(F)c(N3CC[N+]4(CC3)CN3C(=N4)C(C(=O)O)=Cc4ccccc43)cc21.[Cl-] | -0.1044 | 64 | 64 | 64 | 64 | 32 | 32 | > 512 | 16 | 16 | 4 | 4 | 64 | 64 | 2 | 2 | 32 | 64 | > 512 | 32 | MBC (Staphylococcus aureus [18]): 32 µg/mL; MBC [20]: 64 µg/mL; MBC (Serratia marcescens [23]): 32 µg/mL; Activity (HEK293 [24]): Non-Toxic; Activity (HEK293 [25]): Non-Toxic
2 | CC1=CC(C)=C(C(=O)O)C2=N[N+]3(CN12)[C@H](C)CN(c1c(F)c(N)c2c(=O)c(C(=O)O)cn(C4CC4)c2c1F)C[C@@H]3C.[Cl-] (stereo partly specified) | -0.2606 | 8 | 16 | 8 | 8 | 4 | 16 | > 512 | 2 | 2 | 4 | 4 | 32 | > 512 | 1 | 2 | 4 | 2 | > 512 | 32 | MBC (Staphylococcus aureus [18]): 8 µg/mL; MBC [20]: 4 µg/mL; MBC (Serratia marcescens [23]): 32 µg/mL; Activity (HEK293 [24]): Non-Toxic; Activity (HEK293 [25]): Non-Toxic
3 | CCn1cc(C(=O)O)c(=O)c2cnc(N3CC[N+]4(CC3)CN3C(=N4)C(C(=O)O)=Cc4ccccc43)nc21.[Cl-] | -0.4434 | 512 | 512 | 512 | 512 | 256 | 256 | > 512 | 64 | 64 | 16 | 16 | 128 | 128 | 16 | 16 | 256 | 8 | > 512 | 128 | MBC (Staphylococcus aureus [18]): 256 µg/mL; MBC [20]: 16 µg/mL; MBC (Serratia marcescens [23]): 128 µg/mL; Activity (HEK293 [24]): Non-Toxic; Activity (HEK293 [25]): Non-Toxic
4 | CCn1cc(C(=O)O)c(=O)c2cc(F)c(N3CCNCC3)cc21 [NORFLOXACIN] | 0.1033 | 0.25 (≈ 0.783 µM) | 0.25 (≈ 0.783 µM) | 1 (≈ 3.13 µM) | 2 (≈ 6.26 µM) | 0.5 (≈ 1.57 µM) | 2 (≈ 6.26 µM) | 64 (≈ 200 µM) | 0.125 (≈ 0.391 µM) | 0.125 (≈ 0.391 µM) | 0.032 (≈ 0.1 µM) | 0.063 (≈ 0.197 µM) | 0.25 (≈ 0.783 µM) | 0.25 (≈ 0.783 µM) | 0.016 (≈ 0.0501 µM) | 0.016 (≈ 0.0501 µM) | 1 (≈ 3.13 µM) | 0.125 (≈ 0.391 µM) | 128 (≈ 401 µM) | 0.25 (≈ 0.783 µM) | MBC (Enterococcus hirae [26]): 64 µg/mL (≈ 200 µM); MBC (Staphylococcus aureus [18]): 1 µg/mL (≈ 3.13 µM); MBC [20]: 0.125 µg/mL (≈ 0.391 µM); MBC (Streptococcus pneumoniae [27]): > 512 µg/mL; MBC (Serratia marcescens [23]): 0.25 µg/mL (≈ 0.783 µM)
5 | CCn1cc(C(=O)O)c(=O)c2cnc(N3CC[N+]4(CC3)CN3C(C)=CC(C)=C(C(=O)O)C3=N4)nc21.[Cl-] | -0.5725 | > 512 |  | > 512 |  | > 512 |  | > 512 | > 512 |  | > 512 |  | > 512 |  | 256 | > 512 | > 512 | > 512 | > 512 | > 512 | Activity (HEK293 [24]): Non-Toxic; Activity (HEK293 [25]): Non-Toxic
